From patent US11352371B2, “Thienopyrimidine derivatives as ACC inhibitors and uses thereof” (Gilead Sciences, Inc., priority 2019, dated 2022) come the findings set out here.

Data set [1] is described as follows: Rat liver/plasma ratio determination. The format is in vivo, male Sprague-Dawley (SD) rats. The note with it: male SD rats, single oral dose 5 mg/kg or 10 mg/kg; for L/P Ratio (2 h): liver to plasma concentration 2 hours after dosing; for L/P Ratio (24 h): liver to plasma concentration 24 hours after dosing. As for the experimental part: Liver to plasma (L/P) ratios of certain example compounds were determined in male Sprague-Dawley (SD) rats 2 hours and 24 hours after their administration.
The in vivo phases of the rat L/P ratio determinations for example compounds were conducted at Covance Laboratories (Madison, Wis.) or Charles River Laboratories (Worcester, Wash.). Animals were housed and handled in accordance with the Guide for the Care and Use of Laboratory Animals, Institute of Laboratory Animal Resources. The protocols were reviewed and approved by Institutional Animal Care and Use Committees (IACUC). Male Sprague-Dawley (SD) rats weighing approximately 300 g were fasted overnight prior to dosing and up to 4 hours after dosing. Each example compound was dosed at a single dose at 5 mg/kg or 10 mg/kg orally by gavage to male SD rats (n=3 rats/group). The aqueous formulation contained ethyl alcohol and polyethylene glycol 300. Approximately 100 μL plasma and 0.5 g liver samples were collected from each animal either 2 hours or 24 hours after dosing. The liver samples were homogenized by hard tissue homogenizer probes (Omni International, Kennesaw, Ga.) with 4× extraction buffer. For LC-MS/MS analysis, plasma and liver samples were prepared through protein precipitation extraction and analyzed on a Scitex API 5500 or 6500 LC-MS/MS instrument (Applied Biosystems, Foster City, Calif.). Analyte was eluted on a 1.7 μm 50×2.1 mm Acquity UPLC BEH C18 column (Waters, Milford, Mass.) using mobile phase containing 0.1% formic acid and a linear gradient from 55% to 95% acetonitrile at a flow rate of 800 μL/min. A liver/plasma ratio for each compound was calculated using the liver and plasma concentrations at the corresponding time point (2 hours or 24 hours). Noncompartmental pharmacokinetic parameters were calculated using Phoenix 32 (Pharsight Corporation, Mountain View, Calif.).
To assess the liver loading potential of the compounds, rat liver/plasma ratios (Rat L/P Ratio) values were determined for example compounds and are listed below in Table 1 for 2 hour and 24 hour timepoints (Rat L/P Ratio (2h/24h)).

Another data set relates to HepG2 cells. As to the kind of experiment: In vitro De Novo Lipogenesis (DNL) assay, 13C-acetate incorporation into palmitic acid. Type of data set: cell-based. The note with it: Homo sapiens, 1 hour preincubation, 24 hours with 10 mM 13C-labeled acetate. On the procedure: De Novo Lipogenesis (DNL) was measured in vitro in HepG2 cells by quantifying the incorporation of ^13C-labeled acetate into palmitic acid.
HepG2 cells were plated in growth medium (DMEM (Corning cat #15-018-CM) supplemented with 10% FBS (HyClone cat #SH30071-03), and 1× penicillin, streptomycin, glutamine (Corning cat #30-009-CI)) at 10,000 cells/well in a 384-well cell culture-treated plate (Greiner cat #781091). The cells were then incubated overnight at 37° C., 5% CO2. The next day, the cells were washed twice with sterile DPBS (Corning cat #21-031-CM) and the culture medium was changed to fresh growth medium. The compounds of interest were dosed to cells, followed by a 1 hour incubation at 37° C., 5% CO2. ^13C-labeled acetate (Sigma-Aldrich cat #279315-1G) was added to the culture medium at a concentration of 10 mM and the cells were incubated for 24 hours at 37° C., 5% CO2.
In order to analyze the lipid content of the HepG2 cells, the culture medium was removed and the cells were lysed by adding 30 μL of 0.1 M NaOH. After 5 minutes of incubation at room temperature, 15 μL of cell lysate was transferred to a 384-well deep-well plate (Sigma-Aldrich cat #BR701355-48EA) containing 15 μL of 7.3% KOH in ethanol and mixed. This plate was sealed and incubated at 70° C. for 4 hours to hydrolyze the lipids to free fatty acids. 100 μL of acetonitrile was then added and the plate was spun at 3,700 g for 20 minutes to separate the organic and aqueous phases. 50 μL from the top (organic) phase was transferred to a new 384-well plate (NUNC cat #264573) and the samples were analyzed by mass spectrometry using a RapidFire coupled to a QTOF mass spectrometer. The sum of the area under curve (AUC) for palmitate containing 3 to 7 ^13C was normalized with the AUC of oleate and plotted against compound concentration to determine the potency of ACC inhibitors. […]

The term EC50 denotes the concentration giving half of the maximal effect.

For `Cc1c(-c2ncco2)sc2c1c(=O)n(C(C)(C)C(=O)NS(=O)(=O)C1(C)CC1)c(=O)n2C[C@H](O[C@@H]1C[C@H]2CC[C@@H](C1)O2)c1cc(F)ccc1OC(F)F` [Example 6, 2-(1-((R)-2-(((1R,3s,5S)-8-oxabicyclo[3.2.1]octan-3-yl)oxy)-2-(2-(difluoromethoxy)-5-fluorophenyl)ethyl)-5-methyl-6-(oxazol-2-yl)-2,4-dioxo-1,4-dihydrothieno[2,3-d]pyrimidin-3(2H)-yl)-2-methyl-N-((1-methylcyclopropyl)sulfonyl)propanamide], in data set [1], the “L/P Ratio (2 h)” value is reported as 442 and the “L/P Ratio (24 h)” value turned out to be 1106. Further, in the data set with HepG2 cells, the EC50 was 4.5 nM.
Take `COc1ccccc1[C@H](Cn1c(=O)n(C2(C(=O)NS(=O)(=O)C3(C)CC3)CC2)c(=O)c2c(C)c(-c3ncco3)sc21)O[C@@H]1C[C@H]2CC[C@@H](C1)O2` [Example 12, 1-(1-((R)-2-(((1R,3s,5S)-8-oxabicyclo[3.2.1]octan-3-yl)oxy)-2-(2-methoxyphenyl)ethyl)-5-methyl-6-(oxazol-2-yl)-2,4-dioxo-1,4-dihydrothieno[2,3-d]pyrimidin-3(2H)-yl)-N-((1-methylcyclopropyl)sulfonyl)cyclopropane-1-carboxamide]: in data set [1], the “L/P Ratio (2 h)” value worked out at 145 and the “L/P Ratio (24 h)” value came to 136. The molecule also showed an EC50 in the data set on HepG2 cells of 1.7 nM.
As to `COc1ccc(F)cc1[C@H](Cn1c(=O)n(C(C)(C)C(=O)NS(=O)(=O)C2(C)CC2)c(=O)c2c(C)c(-n3nccn3)sc21)O[C@@H]1C[C@H]2CC[C@@H](C1)O2` [Example 20, 2-(1-((R)-2-(((1R,3s,5S)-8-oxabicyclo[3.2.1]octan-3-yl)oxy)-2-(5-fluoro-2-methoxyphenyl)ethyl)-5-methyl-2,4-dioxo-6-(2H-1,2,3-triazol-2-yl)-1,4-dihydrothieno[2,3-d]pyrimidin-3(2H)-yl)-2-methyl-N-((1-methylcyclopropyl)sulfonyl)propanamide], in data set [1], the “L/P Ratio (2 h)” value is on record as 2515 and the “L/P Ratio (24 h)” value was found to be 2914. Besides, the EC50 in the data set on HepG2 cells came out at 0.3 nM.
In turn, `Cc1c(-n2nccn2)sc2c1c(=O)n(C1(C(=O)NS(=O)(=O)C3(C)CC3)CC1)c(=O)n2C[C@H](O[C@@H]1C[C@H]2CC[C@@H](C1)O2)c1ccccc1OC(F)F` [Example 26, 1-(1-((R)-2-(((1R,3s,5S)-8-oxabicyclo[3.2.1]octan-3-yl)oxy)-2-(2-(difluoromethoxy)phenyl)ethyl)-5-methyl-2,4-dioxo-6-(2H-1,2,3-triazol-2-yl)-1,4-dihydrothieno[2,3-d]pyrimidin-3(2H)-yl)-N-((1-methylcyclopropyl)sulfonyl)cyclopropane-1-carboxamide] showed an EC50 with HepG2 cells of 24.6 nM.
For `Cc1c(-n2nccn2)sc2c1c(=O)n(C1(C(=O)NS(=O)(=O)C(C)(C)C)CC1)c(=O)n2C[C@H](O[C@@H]1C[C@H]2CC[C@@H](C1)O2)c1ccccc1OC(F)F` [Example 27, 1-(1-((R)-2-(((1R,3s,5S)-8-oxabicyclo[3.2.1]octan-3-yl)oxy)-2-(2-(difluoromethoxy)phenyl)ethyl)-5-methyl-2,4-dioxo-6-(2H-1,2,3-triazol-2-yl)-1,4-dihydrothieno[2,3-d]pyrimidin-3(2H)-yl)-N-(tert-butylsulfonyl)cyclopropane-1-carboxamide], the EC50 with HepG2 cells is 363 nM.
With `Cc1c(-n2nccn2)sc2c1c(=O)n(C1(C(=O)NS(=O)(=O)C3(C)CC3)CC1)c(=O)n2C[C@H](O[C@@H]1C[C@H]2CC[C@@H](C1)O2)c1cc(F)ccc1OC(F)F` [Example 28, 1-(1-((R)-2-(((1R,3s,5S)-8-oxabicyclo[3.2.1]octan-3-yl)oxy)-2-(2-(difluoromethoxy)-5-fluorophenyl)ethyl)-5-methyl-2,4-dioxo-6-(2H-1,2,3-triazol-2-yl)-1,4-dihydrothieno[2,3-d]pyrimidin-3(2H)-yl)-N-((1-methylcyclopropyl)sulfonyl)cyclopropane-1-carboxamide], the half-maximal effective concentration (EC50) in the data set on HepG2 cells stood at 0.9 nM.
In the case of `Cc1c(-n2nccn2)sc2c1c(=O)n(C1(C(=O)NS(=O)(=O)C(C)(C)C)CC1)c(=O)n2C[C@H](O[C@@H]1C[C@H]2CC[C@@H](C1)O2)c1cc(F)ccc1OC(F)F` [Example 29, 1-(1-((R)-2-(((1R,3s,5S)-8-oxabicyclo[3.2.1]octan-3-yl)oxy)-2-(2-(difluoromethoxy)-5-fluorophenyl)ethyl)-5-methyl-2,4-dioxo-6-(2H-1,2,3-triazol-2-yl)-1,4-dihydrothieno[2,3-d]pyrimidin-3(2H)-yl)-N-(tert-butylsulfonyl)cyclopropane-1-carboxamide], in the data set with HepG2 cells, a half-maximal response (EC50) required 10.2 nM.
Consider `COCCOc1ccccc1[C@H](Cn1c(=O)n(C2(C(=O)NS(=O)(=O)C3(C)CC3)CC2)c(=O)c2c(C)c(-n3nccn3)sc21)O[C@@H]1C[C@H]2CC[C@@H](C1)O2` [Example 30, 1-(1-((R)-2-(((1R,3s,5S)-8-oxabicyclo[3.2.1]octan-3-yl)oxy)-2-(2-(2-methoxyethoxy)phenyl)ethyl)-5-methyl-2,4-dioxo-6-(2H-1,2,3-triazol-2-yl)-1,4-dihydrothieno[2,3-d]pyrimidin-3(2H)-yl)-N-((1-methylcyclopropyl)sulfonyl)cyclopropane-1-carboxamide], for which, in the data set with HepG2 cells, the EC50 was 33.1 nM.
On the same count and under the same terms, the same measure for `COc1ccc(F)cc1[C@H](Cn1c(=O)n(C(C)(C)C(=O)NS(=O)(=O)C2(C)CC2)c(=O)c2c(C)c(-c3ncsn3)sc21)O[C@@H]1C[C@H]2CC[C@@H](C1)O2` [Example 31, 2-(1-((R)-2-(((1R,3s,5S)-8-oxabicyclo[3.2.1]octan-3-yl)oxy)-2-(5-fluoro-2-methoxyphenyl)ethyl)-5-methyl-2,4-dioxo-6-(1,2,4-thiadiazol-3-yl)-1,4-dihydrothieno[2,3-d]pyrimidin-3(2H)-yl)-2-methyl-N-((1-methylcyclopropyl)sulfonyl)propanamide]: 1.4 nM; for `COc1ccccc1[C@H](Cn1c(=O)n(C(C)(C)C(=O)NS(=O)(=O)C2(C)CC2)c(=O)c2c(C)c(C#N)sc21)O[C@@H]1C[C@H]2CC[C@@H](C1)O2` [Example 32, 2-(1-((R)-2-(((1R,3s,5S)-8-oxabicyclo[3.2.1]octan-3-yl)oxy)-2-(2-methoxyphenyl)ethyl)-6-cyano-5-methyl-2,4-dioxo-1,4-dihydrothieno[2,3-d]pyrimidin-3(2H)-yl)-2-methyl-N-((1-methylcyclopropyl)sulfonyl)propanamide]: 9.9 nM.
